Data reported in patent US11795163B2, “Compound for inhibiting nicotinamide phosphoribosyltransferase and composition containing same” (CHECKMATE THERAPEUTICS INC., priority 2016, dated 2023).

Assays:
[1] = system: H661; assay: Therapeutic effect of cancer cell line, IC50; assay type: cell-based; settings: Homo sapiens, NCI-H661; H661, NAPRT expression negative
[2] = system: H322; assay: Therapeutic effect of cancer cell line, IC50; assay type: cell-based; settings: NCI-H322; H322, NAPRT expression negative
[3] = system: H1115; assay: Therapeutic effect of cancer cell line, IC50; assay type: cell-based; settings: H1115, NAPRT expression negative
[4] = system: H2030; assay: Therapeutic effect of cancer cell line, IC50; assay type: cell-based; settings: Homo sapiens, NCI-H2030; H2030, NAPRT expression positive
[5] = system: H1993; assay: Therapeutic effect of cancer cell line, IC50; assay type: cell-based; settings: Homo sapiens, NCI-H1993; H1993, NAPRT expression positive
[6] = system: H1299; assay: Therapeutic effect of cancer cell line, IC50; assay type: cell-based; settings: Homo sapiens, NCI-H1299; H1299, NAPRT expression positive
[7] = system: H2122; assay: Therapeutic effect of cancer cell line, IC50; assay type: cell-based; settings: Homo sapiens, NCI-H2122; H2122, NAPRT expression positive
[8] = system: H1975; assay: Therapeutic effect of cancer cell line, IC50; assay type: cell-based; settings: Homo sapiens, NCI-H1975; H1975, NAPRT expression positive
[9] = system: HBEC30; assay: Therapeutic effect of cancer cell line, IC50; assay type: cell-based; settings: HBEC30, NAPRT expression positive
[10] = Microsome stability evaluation; assay type: in vitro ADME, human; settings: after 30 minutes, 1 μM compound, 0.3 mg/ml microsomal protein, 1 mM NADPH
Procedure: (§1) Metabolic stability was assessed using human liver microsomes and mouse liver microsomes. Specifically, pooled male mouse liver microsomes (in-house preparation per SOP), pooled human liver microsomes (XENOTECH; […] The reaction was stopped by addition of acetonitrile ([…]) containing the same volume of internal standard. The precipitated proteins were removed by centrifugation and the supernatant was analyzed by LC/MS-MS method. […] Residual % parent compound=(peak area at time x/peak area at TO)×100.

[11] = system: retinal pigment epithelium cell (RPE); assay: Toxicity assessment in normal cell line, cell viability; assay type: cell-based; settings: high concentrations
[12] = system: Primary cardiomyocyte; assay: as above; assay type: cell-based; settings: high concentrations
[13] = system: liver cell (THLE-2); assay: as above; assay type: cell-based; settings: for IC50: Homo sapiens, THLE-2, FIG. 25; for toxicity: THLE-2, very high concentrations of 50 μM
[14] = system: liver cell (THLE-3); assay: Toxicity evaluation in normal cell line, cell viability; assay type: cell-based; settings: for IC50: THLE3, THLE-3, FIG. 26; for toxicity: THLE-3, very high concentrations of 50 μM
[15] = system: H322, H661, H1155, H1993, H1975, H2030, H1299, H2122 and HBEC30; assay: Viability of various cancer cell lines by concentration (NAPRT positive vs negative); assay type: cell-based
[16] = Microsome stability evaluation; assay type: in vitro ADME, mouse; settings: after 30 minutes, 1 μM compound, 0.3 mg/ml microsomal protein, 1 mM NADPH
Procedure: as §1

[17] = biological target: hERG channel (Homo sapiens, UniProt Q12809); assay: hERG screening by fluorescence polarization with red fluorescent hERG channel ligand tracer; assay type: binding; settings: probe high affinity red fluorescent hERG channel ligand tracer, mean±standard deviation, read-out: % inhibition capacity
Sequence of hERG channel (Q12809 whole entry): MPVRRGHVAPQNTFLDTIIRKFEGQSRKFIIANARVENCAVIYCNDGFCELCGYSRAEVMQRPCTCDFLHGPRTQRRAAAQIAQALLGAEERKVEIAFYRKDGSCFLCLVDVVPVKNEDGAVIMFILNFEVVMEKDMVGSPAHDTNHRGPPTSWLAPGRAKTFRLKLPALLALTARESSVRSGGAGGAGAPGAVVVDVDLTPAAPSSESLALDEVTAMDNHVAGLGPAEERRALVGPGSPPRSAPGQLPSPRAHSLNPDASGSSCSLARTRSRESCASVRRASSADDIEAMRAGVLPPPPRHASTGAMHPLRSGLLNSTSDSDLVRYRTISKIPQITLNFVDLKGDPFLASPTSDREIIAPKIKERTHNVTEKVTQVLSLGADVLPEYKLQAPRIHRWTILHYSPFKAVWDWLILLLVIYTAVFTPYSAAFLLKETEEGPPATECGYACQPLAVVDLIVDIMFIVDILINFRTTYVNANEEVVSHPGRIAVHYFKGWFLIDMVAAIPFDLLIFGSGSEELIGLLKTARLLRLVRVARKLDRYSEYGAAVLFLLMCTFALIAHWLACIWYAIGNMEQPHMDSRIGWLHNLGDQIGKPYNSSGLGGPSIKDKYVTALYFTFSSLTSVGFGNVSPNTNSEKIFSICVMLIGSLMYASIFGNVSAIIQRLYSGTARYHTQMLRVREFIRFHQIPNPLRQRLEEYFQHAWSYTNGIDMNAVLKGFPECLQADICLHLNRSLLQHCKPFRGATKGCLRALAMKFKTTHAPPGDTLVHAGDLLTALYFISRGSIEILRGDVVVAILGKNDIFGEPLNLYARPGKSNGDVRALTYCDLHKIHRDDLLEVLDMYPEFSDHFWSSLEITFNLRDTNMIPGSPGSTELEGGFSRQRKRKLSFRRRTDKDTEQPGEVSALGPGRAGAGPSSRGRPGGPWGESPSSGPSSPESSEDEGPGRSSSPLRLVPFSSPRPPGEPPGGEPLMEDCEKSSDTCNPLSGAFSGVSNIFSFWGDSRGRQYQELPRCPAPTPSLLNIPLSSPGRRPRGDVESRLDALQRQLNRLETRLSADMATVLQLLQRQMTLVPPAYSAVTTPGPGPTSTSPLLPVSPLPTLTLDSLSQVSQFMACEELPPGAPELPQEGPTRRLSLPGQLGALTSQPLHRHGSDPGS

[18] = biological target: hERG K+ channel (Homo sapiens, UniProt Q12809); assay: hERG K+ channel activity evaluation, patch clamp
Sequence of hERG K+ channel (Q12809 whole entry): as above
Procedure: In addition, as the hERG K+ channel activity evaluation, the potential risk of log QT prolongation according to the dose used was evaluated by measuring the current inhibition according to the drug using a patch clamp technique and evaluating the IC50.

[19] = system: H322 cell line; assay: Toxic mechanism in cancer cell lines: intracellular NAD, ATP and total protein; assay type: cell-based; settings: H322, 2.5 μM
Procedure: To investigate the direct effect of the compound according to the present invention on the catalytic activity of NamPT enzyme, after treating H322 cell line with 2.5 μM of the compound of the Synthesis Example 4, the intracellular NAD, ATP and total protein was measured, with the results depicted in FIG. 20.

## CCc1ccc2oc(-c3ccc(CNC(=O)c4cccnc4)cc3)nc2c1 [Drug3, N-(4-(5-ethylbenzo[d]oxazol-2-yl)benzyl)nicotinamide]
[1]
  IC50: < 1000 nM
[2]
  IC50: 1000 nM
[3]
  IC50: < 3100 nM

## CCc1nnc2sc(-c3ccc(CNC(=O)c4cccnc4)cc3)nn12 [B1423]
[1]
  IC50: > 1000 nM
[4]
  IC50: > 100000 nM
[2]
  IC50: 600 nM
[5]
  IC50: > 100000 nM
[6]
  IC50: > 100000 nM
[7]
  IC50: > 100000 nM
[3]
  IC50: 1000 nM
[8]
  IC50: > 100000 nM
[9]
  IC50: > 100000 nM

## O=C(/C=C/c1cccnc1)NCCCCC1CCN(C(=O)c2ccccc2)CC1 [FK866, N-[4-(1-benzoyl-4-piperidinyl)butyl]-3-(3-pyridinyl)-2E-propenamide]
[10]
  Human(%) parent compound remaining: 25.48 ± 1.45%
[11]
  cytotoxicity (cell viability): unpredictable cytotoxicity
[12]
  cytotoxicity (cell viability): unpredictable cytotoxicity
[13]
  IC50: ~50 nM
[13]; THLE-2, high concentrations
  cytotoxicity (cell viability): unpredictable cytotoxicity
[14]
  IC50: ~50 nM
[15]
  difference in LD50 values between the NAPRT positive cell line and the negative cell line: approximately 10 times
[16]
  Mouse(%) parent compound remaining: 10.26 ± 0.91%

## O=C(NCc1ccc(-c2nc3ncccc3o2)cc1)c1cccnc1 [B1472]
[2]
  IC50: 300 nM

## O=C(NCc1ccc(-c2nc3cc4ccccc4cc3o2)cc1)c1cccnc1 [A4265, N-(4-(naphtho[2,3-d]oxazol-2-yl)benzyl)nicotinamide]
[1]
  IC50: < 30 nM
[2]
  IC50: 3 nM
[17]
  inhibition at 10 µM: 7.44 ± 3.12%
[10]
  Human(%) parent compound remaining: 81.11 ± 4.76%
[18]
  IC50: > 100000 nM
[3]
  IC50: 10 nM
[16]
  Mouse(%) parent compound remaining: 78.24 ± 6.49%

## O=C(NCc1ccc(OCc2ccccn2)cc1)c1cccnc1 [B1979]
[2]
  IC50: 780 nM

## O=C(NCCNC(=O)c1nc(-c2cccs2)no1)c1cccnc1 [B1863]
[2]
  IC50: 12500 nM

## O=C(NCc1ccc(-c2nc3ccc([N+](=O)[O-])cc3o2)cc1)c1cccnc1 [A4261]
[1]
  IC50: < 300 nM
[2]
  IC50: 30 nM
[3]
  IC50: < 100 nM

## O=C(NCCNC(=O)c1nc2ccccc2s1)c1cccnc1 [B1873]
[2]
  IC50: 5000 nM

## O=C(NCCNC(=O)c1nc(-c2ccc(Cl)cc2)no1)c1cccnc1 [B1856]
[2]
  IC50: 12500 nM

## O=C(Nc1ccc2c(c1)CN(C(=O)/C=C/c1cccnc1)CC2)c1ccncc1 [B1963]
[2]
  IC50: 390 nM

## O=C1CC2(CCCC2)CC(=O)N1CCCCN1CCN(c2ncccn2)CC1 [Buspirone, reference compound]
[10]
  Human(%) parent compound remaining: 0.101 ± 0.028%
[16]
  Mouse(%) parent compound remaining: 3.189 ± 1.078%

## O=C(NCc1ccc(-c2nc3cnccc3o2)cc1)c1cccnc1 [B1471, N-(4-(oxazolo[4,5-c]pyridin-2-yl)benzyl)nicotinamide]
[1]
  IC50: 700 nM
[4]
  IC50: > 100000 nM
[2]
  IC50: < 24 nM
[5]
  IC50: > 100000 nM
[6]
  IC50: 100000 nM
[7]
  IC50: > 100000 nM
[3]
  IC50: > 1000 nM
[8]
  IC50: > 100000 nM
[19]
  amount of ATP: remarkably decreased
  amount of NAD: remarkably decreased
  total amount of protein compared to the negative control: decrease
[9]
  IC50: > 100000 nM

## CC(C)c1ccc2oc(-c3ccc(NC(=O)c4cccnc4)cc3)nc2c1 [B1479]
[2]
  IC50: 5000 nM

## O=C(NCc1ccc(-c2nc3ccccc3o2)cc1)c1cccnc1 [B1470]
[2]
  IC50: 60 nM

## O=C(NCc1ccc(S(=O)(=O)N2CCOCC2)cc1)c1cccnc1 [B1977]
[2]
  IC50: 6250 nM

## Cc1ccc(-c2nc3cc(NC(=O)c4cccnc4)ccc3o2)cc1C [B1716]
[2]
  IC50: 12500 nM

## Cc1nccn1-c1ccc(CNC(=O)c2cccnc2)cc1 [B1967]
[2]
  IC50: 12500 nM

## CC(C)c1cc(C(F)(F)F)n2nc([C@H]3CCN(C(=O)/C=C/c4cccnc4)C3)cc2n1 [B1964]
[2]
  IC50: 200 nM

## O=C(NCc1ccc(S(=O)(=O)c2cc(F)cc(F)c2)cc1)c1ccc2nccn2c1 [GNE617, N-(4-((3,5-difluorophenyl)sulfonyl)benzyl)imidazo[1,2-a]pyridine-6-carboxamide, reference compound]
[13]
  IC50: ~50 nM
[14]
  IC50: ~50 nM

## COc1ccc2oc(-c3ccc(CNC(=O)c4cccnc4)cc3)nc2c1 [B1474]
[2]
  IC50: 50 nM

## Cc1ccc2nc(-c3ccc(CNC(=O)c4ccccc4)cc3)oc2c1 [A4303]
[1]
  IC50: 10000 nM
[2]
  IC50: 10000 nM
[3]
  IC50: 10000 nM

## O=C(NCc1ccc(-c2nc3ccc(Cl)cc3o2)cc1)c1cccnc1 [A4266, N-(4-(6-chlorobenzo[d]oxazol-2-yl)benzyl)nicotinamide]
[1]
  IC50: 100 nM
[2]
  IC50: 30 nM
[17]
  inhibition at 10 µM: < 1%
[10]
  Human(%) parent compound remaining: >99%
[18]
  IC50: > 100000 nM
[3]
  IC50: 30 nM
[16]
  Mouse(%) parent compound remaining: 89.3 ± 3.12%

## Cn1/c(=N/NC(=O)/C=C/c2cccnc2)sc2ccccc21 [B1983]
[2]
  IC50: 300 nM

## Cc1ccc2oc(-c3ccc(CNC(=O)c4cccnc4)cc3)nc2c1 [A4275]
[1]
  IC50: < 300 nM
[2]
  IC50: 30 nM
[3]
  IC50: < 300 nM

## COC(=O)c1ccc(CCNC(=O)c2ccc3nccn3c2)cc1 [B1531]
[2]
  IC50: 6250 nM

## O=C(NCc1ccc(S(=O)(=O)N2CCCCC2)cc1)c1cccnc1 [B1981]
[2]
  IC50: 3100 nM

## Cc1nnc2sc(-c3ccc(CNC(=O)c4cccnc4)cc3)nn12 [B1468]
[1]
  IC50: > 1000 nM
[4]
  IC50: > 100000 nM
[2]
  IC50: < 24 nM
[5]
  IC50: > 100000 nM
[13]
  toxicity: little toxicity
[6]
  IC50: > 100000 nM
[7]
  IC50: > 100000 nM
[14]
  toxicity: little toxicity
[3]
  IC50: 3160 nM
[8]
  IC50: > 100000 nM
[9]
  IC50: > 100000 nM

## O=C(Nc1ccc(C(=O)OC2CCCCC2)cc1)c1cccnc1 [B1477]
[1]
  IC50: > 1000 nM
[4]
  IC50: < 100000 nM
[2]
  IC50: < 24 nM
[5]
  IC50: < 100000 nM
[13]
  toxicity: little toxicity
[6]
  IC50: < 100000 nM
[7]
  IC50: 31600 nM
[14]
  toxicity: little toxicity
[3]
  IC50: > 1000 nM
[8]
  IC50: > 100000 nM
[9]
  IC50: > 100000 nM

## O=C(NCc1ccc(-c2nc3cc(-c4ccccc4)ccc3o2)cc1)c1cccnc1 [A4262]
[1]
  IC50: 30000 nM
[2]
  IC50: 30 nM
[3]
  IC50: < 100 nM

## O=C(NCc1ccc(-c2nc3ccccc3s2)cc1)c1cccnc1 [B1469]
[2]
  IC50: 60 nM

## CCc1nnc2sc(-c3ccc(NC(=O)c4cccnc4)cc3)nn12 [B1485]
[2]
  IC50: 30 nM

## CC(C)(C)c1ccc2nc(-c3ccc(CNC(=O)c4cccnc4)cc3)oc2c1 [A4263]
[1]
  IC50: 1000 nM
[2]
  IC50: < 30 nM
[3]
  IC50: < 300 nM

## COc1ccc(-c2noc(C(=O)NCCNC(=O)c3cccnc3)n2)cc1 [B1866]
[2]
  IC50: 10000 nM

## CCN(CC)Cc1ccc(CNC(=O)c2cccnc2)cc1 [B1982]
[2]
  IC50: 12000 nM

## O=C(Nc1ccc(-c2nn3cnnc3s2)cc1)c1cccnc1 [B1523]
[2]
  IC50: 1560 nM

## COC(=O)c1ccc(NC(=O)c2cccnc2)cc1 [B1380]
[1]
  IC50: 2500 nM
[2]
  IC50: 6250 nM
[5]
  IC50: > 12500 nM
[7]
  IC50: > 12500 nM
[9]
  IC50: > 12500 nM

## Cc1ccc(-c2noc(C(=O)NCCNC(=O)c3cccnc3)n2)cc1 [B1857]
[2]
  IC50: 10000 nM

## O=C(/C=C/c1cccnc1)NCCCN1CCc2ccccc21 [B1975]
[2]
  IC50: 1200 nM

## O=C(Nc1ccc(C(=O)c2cc3ccccc3o2)cc1)c1cccnc1 [B1484]
[2]
  IC50: 50 nM

## CCc1ccc2nc(-c3ccc(CNC(=O)c4cccnc4)cc3)oc2c1 [A4302]
[1]
  IC50: 100 nM
[2]
  IC50: 100 nM
[3]
  IC50: < 300 nM

## CC(C)OC(=O)c1ccc(NC(=O)c2cccnc2)cc1 [B1416]
[2]
  IC50: < 1560 nM

## O=C(/C=C/c1cccnc1)N1CCN(Cc2csc(-c3ccco3)n2)CC1 [B1976]
[2]
  IC50: 10000 nM

## O=C(NCc1ccc(N2CCCCC2)cc1)c1cccnc1 [B1978]
[2]
  IC50: 1200 nM

## O=C(NCCNC(=O)c1ccc2ccccc2n1)c1cccnc1 [B1872]
[2]
  IC50: 10000 nM
